Data on 17 compounds can be found in patent US8735424B2 (Novartis AG, priority 2008, dated 2014).

The target of one assay is PIM1 (Homo sapiens, UniProt P11309). In words: Pim1 ATP depletion assay. The format is biochemical. As to conditions: 20 μM ATP, 2.5 nM PIM1. The procedure: The activity of PIM1 is measured using a luciferase-luciferin based ATP detection reagent to quantify ATP depletion resulting from kinase-catalyzed phosphoryl transfer to a peptide substrate. Compounds to be tested are dissolved in 100% DMSO and directly distributed into white 384-well plates at 0.5 μl per well. To start the reaction, 10 μl of 5 nM Pim1 kinase and 80 μM BAD peptide (RSRHSSYPAGT-OH) in assay buffer (50 mM HEPES pH 7.5, 5 mM MgCl2, 1 mM DTT, 0.05% BSA) is added into each well. After 15 minutes, 10 μl of 40 μM ATP in assay buffer is added. Final assay concentrations are 2.5 nM PIM1, 20 μM ATP, 40 μM BAD peptide and 2.5% DMSO. The reaction is performed until approximately 50% of the ATP is depleted, then stopped with the addition of 20 μl KinaseGlo Plus (Promega Corporation) solution. The stopped reaction is incubated for 10 minutes and the remaining ATP detected via luminescence on the Victor2 (Perkin Elmer). […] IC50, the half maximal inhibitory concentration, represents the concentration of a test compound that is required for 50% inhibition of its target in vitro.
Sequence of PIM1 (P11309 whole entry): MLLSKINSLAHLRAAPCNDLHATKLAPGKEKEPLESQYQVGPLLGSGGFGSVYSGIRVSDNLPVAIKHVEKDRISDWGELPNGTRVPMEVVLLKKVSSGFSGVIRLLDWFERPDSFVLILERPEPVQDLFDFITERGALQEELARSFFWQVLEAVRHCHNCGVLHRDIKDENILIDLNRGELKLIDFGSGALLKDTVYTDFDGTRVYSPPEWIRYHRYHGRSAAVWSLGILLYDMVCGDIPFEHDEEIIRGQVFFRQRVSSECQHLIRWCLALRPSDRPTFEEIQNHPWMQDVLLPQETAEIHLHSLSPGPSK

The next assay has as its target PIM2 (Homo sapiens, UniProt Q9P1W9). In words: Pim2 ATP depletion assay. The assay is classed as biochemical. Particulars: 4 μM ATP, 5 nM PIM2. The procedure: The activity of PIM2 is measured using a luciferase-luciferin based ATP detection reagent to quantify ATP depletion resulting from kinase-catalyzed phosphoryl transfer to a peptide substrate. Compounds to be tested are dissolved in 100% DMSO and directly distributed into white 384-well plates at 0.5 μl per well. To start the reaction, 10 μl of 10 nM Pim2 kinase and 20 μM BAD peptide (RSRHSSYPAGT-OH) in assay buffer (50 mM HEPES pH 7.5, 5 mM MgCl2, 1 mM DTT, 0.05% BSA) is added into each well. After 15 minutes, 10 μl of 8 μM ATP in assay buffer is added. Final assay concentrations are 5 nM PIM2, 4 μM ATP, 10 μM BAD peptide and 2.5% DMSO. The reaction is performed until approximately 50% of the ATP is depleted, then stopped with the addition of 20 μl KinaseGlo Plus (Promega Corporation) solution. The stopped reaction is incubated for 10 minutes and the remaining ATP detected via luminescence on the Victor2 (Perkin Elmer).

A further assay concerns KMS11 cells. The experiment in a line: Cell proliferation assay (CellTiter-Glo). The format is cell-based. Particulars: KMS-11, 72 h; KMS11 human myeloma cell line, 3 days. The procedure: KMS11 (human myeloma cell line), were cultured in IMDM supplemented with 10% FBS, sodium pyruvate and antibiotics. Cells were plated in the same medium at a density of 2000 cells per well into 96 well tissue culture plates, with outside wells vacant, on the day of assay. MM1.s (human myeloma cell line), were cultured in RPMI1640 supplemented with 10% FBS, sodium pyruvate and antibiotics. Cells were plated in the same medium at a density of 5000 cells per well into 96 well tissue culture plates, with outside wells vacant, on the day of assay.
Test compounds supplied in DMSO were diluted into DMSO at 500 times the desired final concentrations before dilution into culture media to 2 times final concentrations. Equal volumes of 2× compounds were added to the cells in 96 well plates and incubated at 37° C. for 3 days.
After 3 days plates were equilibrated to room temperature and equal volume of CellTiter-Glow Reagent (Promega) was added to the culture wells. The plates were agitated briefly and luminescent signal was measured with luminometer. The percent inhibition of the signal seen in cells treated with DMSO alone vs. cells treated with control compound was calculated and used to determine EC50 values (i.e., the concentration of a test compound that is required to obtain 50% of the maximum effect in the cells) for tested compounds, as shown in Example 41.
On the technique in general: ATP-based viability assays read luminescence as a measure of living cells.

The target in the next assay is PIM3 (Homo sapiens, UniProt Q86V86). The experiment in a line: Pim3 ATP depletion assay. As to conditions: 40 μM ATP. The format is biochemical. The procedure:
The activity of PIM3 is measured using a luciferase-luciferin based ATP detection reagent to quantify ATP depletion resulting from kinase-catalyzed phosphoryl transfer to a peptide substrate. Compounds to be tested are dissolved in 100% DMSO and directly distributed into white 384-well plates at 0.5 μl per well. To start the reaction, 10 μl of 10 nM Pim3 kinase and 200 μM BAD peptide (RSRHSSYPAGT-OH) in assay buffer (50 mM HEPES pH 7.5, 5 mM MgCl2, 1 mM DTT, 0.05% BSA) is added into each well. After 15 minutes, 10 μl of 80 μM ATP in assay buffer is added. Final assay concentrations are 5 nM PIM1, 40 μM ATP, 100 μM BAD peptide and 2.5% DMSO. The reaction is performed until approximately 50% of the ATP is depleted, then stopped by the addition of 20 μl KinaseGlo Plus (Promega Corporation) solution. The stopped reaction is incubated for 10 minutes and the remaining ATP detected via luminescence on the Victor2 (Perkin Elmer).

Sequence of PIM2 (Q9P1W9 whole entry): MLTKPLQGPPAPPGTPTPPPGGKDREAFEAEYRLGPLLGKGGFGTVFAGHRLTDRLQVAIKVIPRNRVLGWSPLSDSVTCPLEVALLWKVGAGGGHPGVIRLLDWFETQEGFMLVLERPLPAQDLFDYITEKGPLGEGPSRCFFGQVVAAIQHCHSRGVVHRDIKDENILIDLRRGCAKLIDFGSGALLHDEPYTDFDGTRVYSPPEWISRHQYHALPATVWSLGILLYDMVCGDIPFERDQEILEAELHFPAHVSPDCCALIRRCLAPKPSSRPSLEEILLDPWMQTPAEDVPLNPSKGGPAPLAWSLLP

For `CS(=O)(=O)c1ccc(-c2ccc(N)c(-c3cc4c(N5CCC[C@H](N)C5)ccnc4cn3)n2)cc1` [Example 24, (S)-2-(4-(3-aminopiperidin-1-yl)-1,7-naphthyridin-6-yl)-6-(4-(methylsulfonyl)phenyl)pyridin-3-amine], the IC50 on PIM1 is 2 nM; against PIM2, 34 nM; against PIM3, 7 nM. In the assay with KMS11 cells, this compound came in with an EC50 of 1200 nM.

With `Nc1cnc(-c2ccccc2F)nc1-c1cc2c(N3CCC[C@H](N)C3)ccnc2cn1` [Example 6, (S)-4-(4-(3-aminopiperidin-1-yl)-1,7-naphthyridin-6-yl)-2-(2-fluorophenyl)pyrimidin-5-amine], the IC50 at PIM1 stood at 4 nM; against PIM2 it was 59 nM; against PIM3 it was 3 nM. The same compound showed an EC50 in the assay on KMS11 cells of 1800 nM.

`C[C@@H]1C[C@H](N)CN(c2ccnc3ccc(-c4cccc(-c5nccs5)n4)cc23)C1` [Example 31, (3S,5R)-5-methyl-1-(6-(6-(thiazol-2-yl)pyridin-2-yl)quinolin-4-yl)piperidin-3-amine]: the values for the IC50 against PIM1, against PIM2 and at PIM3 were 5 nM, 12 nM and 6 nM, respectively. In addition, in the assay on KMS11 cells, the response was half-maximal at 790 nM (EC50).

As for `N[C@H]1CCCN(c2ccnc3ccc(-c4cccc(-c5nccs5)n4)cc23)C1` [Example 27, (S)-1-(6-(6-(thiazol-2-yl)pyridin-2-yl)quinolin-4-yl)piperidin-3-amine], the IC50 against PIM1 was 10 nM; against PIM2, 45 nM; at PIM3 it was 10 nM. The EC50 in the assay with KMS11 cells is 940 nM.

For the compound `CC(C)NC(=O)c1ccc(F)c(-c2ccc(N)c(-c3cc4c(N5CCC[C@H](N)C5)ccnc4cn3)n2)c1` [Example 10, (S)-3-(5-amino-6-(4-(3-aminopiperidin-1-yl)-1,7-naphthyridin-6-yl)pyridin-2-yl)-4-fluoro-N-isopropylbenzamide], the IC50 stood at 3 nM at PIM1, 48 nM at PIM2 and 13 nM on PIM3. The same compound registered an EC50 in the assay on KMS11 cells of 3900 nM.

Turning to `N[C@H]1CCCN(c2ccnc3ccc(-c4nccc(-c5nccs5)n4)cc23)C1` [Example 28, (S)-1-(6-(4-(thiazol-2-yl)pyrimidin-2-yl)quinolin-4-yl)piperidin-3-amine], the values for the IC50 at PIM1, against PIM2 and against PIM3 were 7 nM, 68 nM and 7 nM, respectively. In the assay with KMS11 cells, it took 770 nM to reach a half-maximal effect (EC50).

Consider `Nc1ccc(-c2c(F)cccc2F)nc1-c1cc2c(N3CCC[C@@H](N)C3)ccnc2cn1` [Example 7, (R)-2-(4-(3-aminopiperidin-1-yl)-1,7-naphthyridin-6-yl)-6-(2,6-difluorophenyl)pyridin-3-amine], for which the IC50 against PIM1 was 5 nM; against PIM2, 24 nM; at PIM3, 7 nM. The response in the assay with KMS11 cells was half-maximal at 2800 nM (EC50).

With `Nc1ccc(-c2ccc(S(N)(=O)=O)cc2)nc1-c1cc2c(N3CCC[C@H](N)C3)ccnc2cn1` [Example 23, (S)-4-(5-amino-6-(4-(3-aminopiperidin-1-yl)-1,7-naphthyridin-6-yl)pyridin-2-yl)benzenesulfonamide], the IC50 was determined as 2 nM on PIM1, 34 nM against PIM2 and 7 nM against PIM3. This compound yielded an EC50 in the assay on KMS11 cells of 7800 nM.

On to `N[C@H]1CCCN(c2ccnc3cnc(-c4cccc(-c5nccs5)n4)cc23)C1` [Example 25, (S)-1-(6-(6-(thiazol-2-yl)pyridin-2-yl)-1,7-naphthyridin-4-yl)piperidin-3-amine], for which the figures for the 50% inhibitory concentration (IC50) at PIM1, against PIM2 and against PIM3 were 6 nM, 60 nM and 7 nM, respectively. The compound further came in with an EC50 with KMS11 cells of 590 nM.

With `Nc1ccc(-c2nccs2)nc1-c1cc2c(N3CCC[C@H](N)C3)ccnc2cn1` [Example 5, (S)-2-(4-(3-aminopiperidin-1-yl)-1,7-naphthyridin-6-yl)-6-(thiazol-2-yl)pyridin-3-amine], the results for the IC50 against PIM1, against PIM2 and at PIM3 were 1 nM, 9 nM and 4 nM, respectively. This compound also had an EC50 in the assay on KMS11 cells of 840 nM.

`Nc1ccc(-c2c(F)cccc2F)nc1-c1cc2c(N3CCC[C@H](N)C3)ccnc2cn1` [Example 9, (S)-2-(4-(3-aminopiperidin-1-yl)-1,7-naphthyridin-6-yl)-6-(2,6-difluorophenyl)pyridin-3-amine]: the IC50 on PIM1 was found to be 1 nM; against PIM2 it was 40 nM; against PIM3 it was 6 nM. In the assay on KMS11 cells, this compound yielded an EC50 of 3700 nM.

With `Nc1ccc(-c2cccs2)nc1-c1cc2c(N3CCC[C@H](N)C3)ccnc2cn1` [Example 13, (S)-2-(4-(3-aminopiperidin-1-yl)-1,7-naphthyridin-6-yl)-6-(thiophen-2-yl)pyridin-3-amine], the IC50 against PIM1 came to 3 nM; against PIM2, 54 nM; on PIM3, 4 nM. For the same compound, the EC50 with KMS11 cells came out at 4700 nM.

In the case of `Nc1ccc(-c2cc(C(=O)Nc3ccccc3)ccc2F)nc1-c1cc2c(N3CCC[C@H](N)C3)ccnc2cn1` [Example 12, (S)-3-(5-amino-6-(4-(3-aminopiperidin-1-yl)-1,7-naphthyridin-6-yl)pyridin-2-yl)-4-fluoro-N-phenylbenzamide], the half-inhibitory concentration (IC50) on PIM1 is 9 nM; at PIM2, 98 nM; on PIM3, 21 nM. The response in the assay with KMS11 cells was half-maximal at 4100 nM (EC50).

For `Nc1ccc(-c2nccs2)nc1-c1cc2c(N3CCC[C@H](N)C3)c(F)cnc2cn1` [Example 1, (S)-2-(4-(3-aminopiperidin-1-yl)-3-fluoro-1,7-naphthyridin-6-yl)-6-(thiazol-2-yl)pyridin-3-amine], the figures for the IC50 on PIM1, against PIM2 and at PIM3 were 2 nM, 40 nM and 7 nM, respectively. The EC50 with KMS11 cells is 870 nM.

Consider `Nc1ccc(-c2cccc(F)c2F)nc1-c1cc2c(N3CCC[C@H](N)C3)ccnc2cn1` [Example 18, (S)-2-(4-(3-aminopiperidin-1-yl)-1,7-naphthyridin-6-yl)-6-(2,3-difluorophenyl)pyridin-3-amine], for which the IC50 came out at 2 nM on PIM1, 71 nM on PIM2 and 4 nM on PIM3. Besides, in the assay with KMS11 cells, the EC50 is 4900 nM.

As to `Nc1ccc(-c2cc(C(=O)NC3CCCCC3)ccc2F)nc1-c1cc2c(N3CCC[C@H](N)C3)ccnc2cn1` [Example 15, (S)-3-(5-amino-6-(4-(3-aminopiperidin-1-yl)-1,7-naphthyridin-6-yl)pyridin-2-yl)-N-cyclohexyl-4-fluorobenzamide], the IC50 against PIM1 was 9 nM; on PIM2, 74 nM; on PIM3, 22 nM. In the assay with KMS11 cells, this compound returned an EC50 of 3100 nM.

In the case of `Nc1ccc(-c2ccccc2)nc1-c1cc2c(N3CCC[C@H](N)C3)ccnc2cn1` [Example 20, (S)-2-(4-(3-aminopiperidin-1-yl)-1,7-naphthyridin-6-yl)-6-phenylpyridin-3-amine], the IC50 on PIM1 is 3 nM; at PIM2, 62 nM; against PIM3 it was 4 nM. This compound came in with an EC50 in the assay with KMS11 cells of 4200 nM.

As a reminder, the IC50 is the midpoint of a concentration-inhibition curve. Higher therefore signals weaker potency. One may read the EC50 as the concentration needed to bring the measured effect to its halfway point. High values mean weaker potency, low ones greater potency.
